Patent publication US6242455A, “Pyrimidin-2,4,6-trion derivatives, method for producing the same and medicinal products containing these compounds” (Roche Diagnostics GmbH, priority 1997, dated 2001)

Target: T1, Angiotensin-converting enzyme from rabbit lung (Oryctolagus cuniculus, UniProt P12822)
T1 construct: purchased Fluka; host or cells: rabbit lung
T1 sequence (P12822 34-1310): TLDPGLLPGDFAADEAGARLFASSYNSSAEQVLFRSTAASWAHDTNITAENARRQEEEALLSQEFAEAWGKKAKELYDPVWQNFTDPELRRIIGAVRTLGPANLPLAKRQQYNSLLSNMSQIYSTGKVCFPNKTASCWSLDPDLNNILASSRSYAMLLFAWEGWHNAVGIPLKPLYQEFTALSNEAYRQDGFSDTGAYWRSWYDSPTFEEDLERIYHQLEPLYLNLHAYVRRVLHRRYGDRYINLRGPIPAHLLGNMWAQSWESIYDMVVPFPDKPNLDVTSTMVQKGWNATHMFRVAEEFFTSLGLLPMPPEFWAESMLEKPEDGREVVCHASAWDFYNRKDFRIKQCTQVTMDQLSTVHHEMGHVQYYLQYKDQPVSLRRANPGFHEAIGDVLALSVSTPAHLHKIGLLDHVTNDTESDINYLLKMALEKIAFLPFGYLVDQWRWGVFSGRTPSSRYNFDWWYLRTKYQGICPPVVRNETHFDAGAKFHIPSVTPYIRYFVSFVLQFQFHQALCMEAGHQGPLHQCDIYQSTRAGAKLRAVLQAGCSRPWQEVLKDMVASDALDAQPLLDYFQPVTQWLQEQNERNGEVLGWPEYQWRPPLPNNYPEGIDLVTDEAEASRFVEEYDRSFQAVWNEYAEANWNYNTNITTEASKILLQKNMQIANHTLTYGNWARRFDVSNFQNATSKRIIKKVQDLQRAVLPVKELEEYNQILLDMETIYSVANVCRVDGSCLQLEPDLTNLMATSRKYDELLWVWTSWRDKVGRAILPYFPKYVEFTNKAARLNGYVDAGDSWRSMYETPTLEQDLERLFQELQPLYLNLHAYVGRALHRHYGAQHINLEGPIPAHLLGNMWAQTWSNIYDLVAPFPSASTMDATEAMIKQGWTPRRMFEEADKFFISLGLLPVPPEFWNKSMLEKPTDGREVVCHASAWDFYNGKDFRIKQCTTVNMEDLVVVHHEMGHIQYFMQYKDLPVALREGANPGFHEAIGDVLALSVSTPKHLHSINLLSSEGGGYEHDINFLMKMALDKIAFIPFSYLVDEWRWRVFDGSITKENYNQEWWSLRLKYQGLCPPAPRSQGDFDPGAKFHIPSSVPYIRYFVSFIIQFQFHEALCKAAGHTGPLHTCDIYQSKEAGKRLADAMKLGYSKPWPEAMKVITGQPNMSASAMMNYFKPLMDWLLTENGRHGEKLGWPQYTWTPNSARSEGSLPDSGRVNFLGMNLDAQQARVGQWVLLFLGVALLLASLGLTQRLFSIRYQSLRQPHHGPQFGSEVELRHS
Experiment: ACE-fluorescence assay for the determination of the IC50 value
Format: biochemical
Details: substrate Abz-Gly-Phe(NO2)-Pro 20 μM, pH 8.0, 36° C., inhibitor 0 to 100 μM
Source text: ACE-fluorescence assay for the determination of the IC50 value
Literature: Amos Carmel and Arieh Yaron, Eur. J. Biochem. […], 265-273 (1978). An Intramolecularly Quenched Fluorescent Tripeptide as a Fluorogenic Substrate of Angiotensin-I-Converting Enzyme and of Bacterial Dipeptidyl Carboxypeptidase.
Enzyme: Angiotensin-converting enzyme from rabbit lung (EC.3.4.15.1), Fluka (3.3 U/μg)
Substrate: Abz-Gly-Phe(NO2)-Pro, M-1100 Bachem
Assay buffer: 0.05 Tris-HCl
Excitation: 360 nm (excitation slit: 8 nm)
Emission: 410 nm (emission slit: 10 nm)
Substrate stock solution: […] in assay buffer
Enzyme stock solution: […] assay buffer
Inhibitor stock solution: 1 mM in DMSO diluted in assay buffer
Measuring cuvette: 50 μl substrate (yields 20 μM)
0 to 100 μl inhibitor stock solution […]
fill up remainder to 1 ml
Substrate, inhibitor and buffer are added together in a heated measuring cuvette and the enzyme reaction is started by addition of enzyme. The increase in fluorescence over time (200 s) is monitored in a time scan. The respective initial rate is determined from the increase.
The IC50 value can be determined as follows:
V0 =initial rate without inhibitor
[I]=inhibitor concentration

Work on CC(C)(C)C(C(=O)O)C(=O)NC1(c2ccccc2)C(=O)NC(=O)NC1=O (stereo not shown) [Example 4, 3. 3-Dimethyl-2-(2,4,6-trioxo-5-phenyl-hexahydro-pyrimidin-5-ylcarbamoyl)-butyric acid] yielded an IC50 of 159 µM.
